Structures are written as SMILES. Where only a bound is given, the exact number is not on record here.

In general, IC50 refers to the concentration that inhibits the measured activity by half.

The target in one experiment is T1, RORγ (Homo sapiens, UniProt P51449).
T1 construct: Gal4 (galactose-responsive transcription factor); expressed in transfected cells; host or cells: HEK293
T1 sequence (P51449 269-508 limits assumed): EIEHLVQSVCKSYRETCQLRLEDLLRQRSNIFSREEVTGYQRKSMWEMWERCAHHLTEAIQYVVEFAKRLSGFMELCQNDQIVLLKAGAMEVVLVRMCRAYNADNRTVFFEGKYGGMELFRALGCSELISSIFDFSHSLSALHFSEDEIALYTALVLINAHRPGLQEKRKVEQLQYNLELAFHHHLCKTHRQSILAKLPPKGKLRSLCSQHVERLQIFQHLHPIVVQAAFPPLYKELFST
Briefly: RORγ Reporter Assay (Gal4). It is filed as cell-based. Particulars: HEK293 co-transfected with RORγ LBD-Gal4 and luciferase reporter, 24 h incubation, absolute IC50; read-out: IC50. How it is done: RORγ Reporter Assay (Gal4)
The HEK293 cell line is co-transfected transiently with two plasmids, one with the RORγ ligand-binding domain fused to galactose-responsive transcription factor (Gal4), and the other with the luciferase reporter gene and Gal binding sites (UAS). This construction allows to determine the RORγ activity in a cellular system through the measurement of luminescence.
A suspension of RORγ reporter cells was dispensed into plates and cultured 2 h at 37° C. and 5% CO2. Media formulation consisted in DMEM/F-12 medium (Gibco) supplemented with 10% heat inactivated FBS (Sigma-Aldrich), non-essential aminoacids (Sigma-Aldrich), 2 mM Glutamax (Gibco) and 100 U/mF penicillin (Sigma-Aldrich). Dose-response curves with compounds were prepared in 100% DMSO and further diluted […] in culture medium. Compound solutions were added to the plate containing cells (final DMSO concentration of 0.1%) and incubated for 24 h at 37° C. and 5% CO2. Luciferase detection reagent was added to each well, and relative light units […] were quantified from each assay well using a plate reading luminometer.
Values of average RFU±S.D. were computed for all treatment sets, followed by the calculations of percent-reduction of RORγ activity in response to respective test compound. The following formula was used: activity=100*[1−[x test compound/average vehicle]where the theoretical minimum reduction (0% reduction).
Take `NC(=O)CN1CCC(F)(CNc2ncnc(N3CCOC[C@@H]3c3ccc(C(F)(F)F)cn3)c2F)CC1` [Example H6-8, (S)-2-(4-fluoro-4-(((5-fluoro-6-(3-(5-(trifluoromethyl)pyridin-2-yl)morpholino)pyrimidin-4-yl)amino)methyl)piperidin-1-yl)acetamide]: the IC50 came to 0.16 µM.

On to `NC(=O)CN1CCC(CNc2ncnc(N3CCC[C@@H]3c3ccc(C(F)(F)F)cc3)c2F)CC1` [Example H6-25-1, (R)-2-(4-(((5-fluoro-6-(2-(4-(trifluoromethyl)phenyl)pyrrolidin-1-yl)pyrimidin-4-yl)amino)methyl)piperidin-1-yl)acetamide], for which the IC50 stood at 0.066 µM.

In the case of `NC(=O)CN1CCC(F)(CNc2ncnc(N3CCOC[C@@H]3c3ccc(OC(F)(F)F)cc3)c2F)CC1` [Example H6-6, (S)-2-(4-fluoro-4-(((5-fluoro-6-(3-(4-(trifluoromethoxy)phenyl)morpholino)pyrimidin-4-yl)amino)methyl)piperidin-1-yl)acetamide], the half-maximal inhibitory concentration (IC50) was 0.051 µM.

Turning to `NC(=O)CN1CCC(CNc2ncnc(N3CCOC[C@@H]3c3ccc(C(F)(F)F)cn3)c2F)CC1` [Example H6-2, (S)-2-(4-(((5-fluoro-6-(3-(5-(trifluoromethyl)pyridin-2-yl)morpholino)pyrimidin-4-yl)amino)methyl)piperidin-1-yl)acetamide], the IC50 is 0.33 µM.

Take `CC(C)(C(N)=O)N1CCC(CNc2ncnc(N3CCOC[C@@H]3c3ccc(C(F)(F)F)cn3)c2F)CC1` [Example H6-3, (S)-2-(4-(((5-fluoro-6-(3-(5-(trifluoromethyl)pyridin-2-yl)morpholino)pyrimidin-4-yl)amino)methyl)piperidin-1-yl)-2-methylpropanamide]: the IC50 is 0.28 µM.

In the case of `NC(=O)CN1CCC(CNc2ncnc(N3CCOC[C@@H]3c3ccc(C(F)(F)F)cn3)c2F)C(F)(F)C1` (single isomer, unassigned) [Example H6-11-1, 2-((R*)-3,3-difluoro-4-(((5-fluoro-6-((S)-3-(5-(trifluoromethyl)pyridin-2-yl)morpholino)pyrimidin-4-yl)amino)methyl)piperidin-1-yl)acetamide], the IC50 was determined as 0.36 µM.

On to `NC(=O)CN1CCC(O)(CNc2ncnc(N3CC(F)(F)C[C@@H]3c3ccc(C(F)(F)F)cc3)c2F)CC1` [Example H6-14, (R)-2-(4-(((6-(4,4-difluoro-2-(4-(trifluoromethyl)phenyl)pyrrolidin-1-yl)-5-fluoropyrimidin-4-yl)amino)methyl)-4-hydroxypiperidin-1-yl)acetamide], for which the IC50 is 0.23 µM.

With `NC(=O)CN1CC[C@H](CNc2ncnc(N3CCOC[C@@H]3c3ccc(C(F)(F)F)cc3)c2F)[C@@H](F)C1` (single isomer, unassigned) [Example H6-10-1, 2-((3R*,4R*)-3-fluoro-4-(((5-fluoro-6-((S)-3-(4-(trifluoromethyl)phenyl)morpholino)pyrimidin-4-yl)amino)methyl)piperidin-1-yl)acetamide], the IC50 is 0.039 µM.

As to `NC(=O)CN1CCC(CNc2ncnc(N3CC(F)(F)C[C@@H]3c3ccc(C(F)(F)F)cc3)c2F)C(F)(F)C1` (single isomer, unassigned) [Example H6-15-1, 2-((R*)-4-(((6-((R)-4,4-difluoro-2-(4-(trifluoromethyl)phenyl)pyrrolidin-1-yl)-5-fluoropyrimidin-4-yl)amino)methyl)-3,3-difluoropiperidin-1-yl)acetamide], the IC50 was 0.009 µM.

As to `C[C@@H]1COC[C@H](c2cccc(C(F)(F)F)c2)N1c1ncnc(NC[C@@H]2CCN(CC(N)=O)C[C@H]2O)c1F` (single isomer, unassigned) [Example H6-21-3], the IC50 amounted to 0.086 µM.

Turning to `NC(=O)CN1CC[C@H](CNc2ncnc(N3CC(F)(F)C[C@@H]3c3ccc(C(F)(F)F)cn3)c2F)[C@@H](F)C1` (single isomer, unassigned) [Example H6-18-1, 2-((3R*,4R*)-4-(((6-((R)-4,4-difluoro-2-(5-(trifluoromethyl)pyridin-2-yl)pyrrolidin-1-yl)-5-fluoropyrimidin-4-yl)amino)methyl)-3-fluoropiperidin-1-yl)acetamide], the IC50 was found to be 0.14 µM.

Take `NC(=O)CN1CCC(CNc2ncnc(N3C[C@H](F)C[C@@H]3c3ccc(C(F)(F)F)cc3)c2F)CC1` (racemic) [Example H6-27, rac-2-(4-(((5-fluoro-6-((2R,4R)-4-fluoro-2-(4-(trifluoromethyl)phenyl)pyrrolidin-1-yl)pyrimidin-4-yl)amino)methyl)piperidin-1-yl)acetamide]: the IC50 amounted to 0.21 µM.

Take `NC(=O)CN1CCC(F)(CNc2ncnc(N3CCOC[C@@H]3c3ccc(C(F)(F)F)cc3)c2F)CC1` [Example H6-4, (S)-2-(4-fluoro-4-(((5-fluoro-6-(3-(4-(trifluoromethyl)phenyl)morpholino)pyrimidin-4-yl)amino)methyl)piperidin-1-yl)acetamide]: the IC50 was determined as 0.056 µM.

With `NC(=O)CN1CC[C@H](CNc2ncnc(N3CC(F)(F)C[C@@H]3c3ccc(C(F)(F)F)cc3)c2F)[C@@H](F)C1` (single isomer, unassigned) [Example H6-16-1, 2-((3R*,4R*)-4-(((6-((R)-4,4-difluoro-2-(4-(trifluoromethyl)phenyl)pyrrolidin-1-yl)-5-fluoropyrimidin-4-yl)amino)methyl)-3-fluoropiperidin-1-yl)acetamide], the IC50 stood at 0.014 µM.

For `NC(=O)CN1CC[C@H](CNc2ncnc(N3CC(F)(F)C[C@@H]3c3ccc(C(F)(F)F)cc3)c2F)[C@@H](O)C1` (mixture of isomers) [Example H6-17, 2-((3RS,4RS)-4-(((6-((R)-4,4-difluoro-2-(4-(trifluoromethyl)phenyl)pyrrolidin-1-yl)-5-fluoropyrimidin-4-yl)amino)methyl)-3-hydroxypiperidin-1-yl)acetamide], the IC50 was 0.01 µM.

Take `NC(=O)CN1CC[C@H](CNc2ncnc(N3CC(F)(F)C[C@@H]3c3ccc(C(F)(F)F)cn3)c2F)[C@@H](O)C1` (mixture of isomers) [Example H6-20, 2-((3RS,4RS)-4-(((6-((R)-4,4-difluoro-2-(5-(trifluoromethyl)pyridin-2-yl)pyrrolidin-1-yl)-5-fluoropyrimidin-4-yl)amino)methyl)-3-hydroxypiperidin-1-yl)acetamide]: the IC50 amounted to 0.488 µM.

Take `C[C@@H]1COC[C@H](c2ccc(C(F)(F)F)cc2)N1c1ncnc(NC[C@@H]2CCN(CC(N)=O)C[C@H]2O)c1F` (single isomer, unassigned) [Example H6-22-1]: the IC50 was 0.044 µM.

On to `NC(=O)CN1CCC(CNc2ncnc(N3CC(F)(F)C[C@@H]3c3ccc(C(F)(F)F)cc3)c2F)C(F)(F)C1` (single isomer, unassigned) [Example H6-15-2, 2-((R*)-4-(((6-((R)-4,4-difluoro-2-(4-(trifluoromethyl)phenyl)pyrrolidin-1-yl)-5-fluoropyrimidin-4-yl)amino)methyl)-3,3-difluoropiperidin-1-yl)acetamide], for which the IC50 was determined as 0.025 µM.

On to `NC(=O)CN1CC[C@H](CNc2ncnc(N3CC(F)(F)C[C@@H]3c3ccc(C(F)(F)F)cc3)c2F)[C@@H](F)C1` (single isomer, unassigned) [Example H6-16-2, 2-((3R*,4R*)-4-(((6-((R)-4,4-difluoro-2-(4-(trifluoromethyl)phenyl)pyrrolidin-1-yl)-5-fluoropyrimidin-4-yl)amino)methyl)-3-fluoropiperidin-1-yl)acetamide], for which the IC50 turned out to be 0.01 µM.

Turning to `NC(=O)CN1CCC(CNc2ncnc(N3CCOC[C@@H]3c3ccc(C(F)(F)F)cc3)c2F)C(F)(F)C1` (single isomer, unassigned) [Example H6-9-2, 2-((R*)-3,3-difluoro-4-(((5-fluoro-6-((S)-3-(4-(trifluoromethyl)phenyl)morpholino)pyrimidin-4-yl)amino)methyl)piperidin-1-yl)acetamide], the IC50 was 0.018 µM.

With `CC(C(N)=O)N1CCC(CNc2ncnc(N3CCOC[C@@H]3c3ccc(C(F)(F)F)cn3)c2F)CC1` (stereo partly drawn) [Example H6-1], the IC50 was 0.91 µM.

The experiment is the same for the next values; noted with them: comparison compounds from WO2016020295, Tables 5 and 6; read-out: Gal4 assay IC50.
`NC(=O)CC1CCC(CNc2ncnc(N3CCOC[C@@H]3c3ccc(C(F)(F)F)cc3)c2F)CC1` (stereo partly drawn) [Example 206, reference compound]: the IC50 was below 1 µM.

Turning to `NC(=O)Cc1ccc(CNc2ncnc(N3CCOC[C@@H]3c3ccc(OC(F)(F)F)cc3)c2F)cc1` [Example 230, reference compound], the IC50 is below 0.1 µM.

Consider `NC(=O)Cc1ccc(CNc2ncnc(N3CCOC[C@@H]3c3ccc(C(F)(F)F)cc3)c2F)cc1` [Example 204, reference compound], for which the IC50 was below 0.5 µM.
